Patent US20220056040A1, “NOVEL 3-(2-BROMO-4-ALKYNYL-6-ALKOXYPHENYL)-3-PYRROLIN-2-ONES AND THEIR USE AS HERBICIDES” (Bayer Aktiengesellschaft, priority 2019, published 2022)

Legend:
Type in all cases: in vivo
Alopecurus myosuroides [1] = test: Post-emergence herbicidal effect; conditions: 80 g/ha, post-emergence at one-leaf stage, visual score after about 3 weeks
Protocol: (§1) Seeds of monocotyledonous and dicotyledonous weed and crop plants are laid out in sandyloam soil in wood-fiber pots, covered with soil and cultivated in a greenhouse under good growth conditions. 2 to 3 weeks after sowing, the test plants are treated at the one-leaf stage. The compounds of the invention, formulated in the form of wettable powders (WP) or as emulsion concentrates (EC), are then sprayed onto the green parts of the plants as aqueous suspension or emulsion at a water application rate equating to 600 to 800 l/ha with addition of 0.2% wetting agent. After the test plants have been left to stand in the greenhouse under optimal growth conditions for about 3 weeks, the action of the preparations is assessed visually in comparison to untreated controls (herbicidal action in percent (%): 100% activity=the plants have died, 0% activity=like control plants).

Hordeum murinum = test: Post-emergence herbicidal effect; conditions: 80 g/ha, post-emergence at one-leaf stage, visual score after about 3 weeks
Protocol: as §1

Digitaria sanguinalis [2] = test: Post-emergence herbicidal effect; conditions: 80 g/ha, post-emergence at one-leaf stage, visual score after about 3 weeks
Protocol: as §1

Setaria viridis [3] = test: Post-emergence herbicidal effect; conditions: 80 g/ha, post-emergence at one-leaf stage, visual score after about 3 weeks
Protocol: as §1

Echinochloa crus-galli [4] = test: Post-emergence herbicidal effect; conditions: 80 g/ha, post-emergence at one-leaf stage, visual score after about 3 weeks
Protocol: as §1

Lolium rigidum [5] = test: Post-emergence herbicidal effect; conditions: 80 g/ha, post-emergence at one-leaf stage, visual score after about 3 weeks
Protocol: as §1

Alopecurus myosuroides [6] = test: Pre-emergence herbicidal effect; conditions: 80 g/ha, visual score after 3 weeks vs untreated controls
From the text: (§2) Seeds of monocotyledonous and dicotyledonous weed plants and crop plants are laid out in sandy loam soil in wood-fiber pots and covered with soil. The compounds of the invention, formulated in the form of wettable powders (WP) or as emulsion concentrates (EC), are then applied to the surface of the covering soil as aqueous suspension or emulsion at a water application rate equating to 600 to 800 L/ha with addition of 0.2% wetting agent. After the treatment, the pots are placed in a greenhouse and kept under good growth conditions for the trial plants. The damage to the test plants is scored visually after a test period of 3 weeks by comparison with untreated controls (herbicidal activity in percent (%): 100% activity=the plants have died, 0% activity=like control plants).

Digitaria sanguinalis [7] = test: Pre-emergence herbicidal effect; conditions: 80 g/ha, visual score after 3 weeks vs untreated controls
From the text: as §2

Setaria viridis [8] = test: Pre-emergence herbicidal effect; conditions: 80 g/ha, visual score after 3 weeks vs untreated controls
From the text: as §2

Echinochloa crus-galli [9] = test: Pre-emergence herbicidal effect; conditions: 80 g/ha, visual score after 3 weeks vs untreated controls
From the text: as §2

Avena fatua = test: Pre-emergence herbicidal effect; conditions: 80 g/ha, visual score after 3 weeks vs untreated controls
From the text: as §2

Lolium rigidum [10] = test: Pre-emergence herbicidal effect; conditions: 80 g/ha, visual score after 3 weeks vs untreated controls
From the text: as §2

SMILES: C=CCOC1CCC2(CC1)NC(=O)C(c1c(Br)cc(C#CC)cc1OC)=C2OC(=O)C(C)C (centres unmarked) [Example 1.3.04]
- Post-emergence action against ALOMY (herbicidal action in percent) (Alopecurus myosuroides [1]): 90%
- Post-emergence action against HORMU (herbicidal action in percent) (Hordeum murinum): 100%
- Post-emergence action against DIGSA (herbicidal action in percent) (Digitaria sanguinalis [2]): 100%
- Post-emergence action against SETVI (herbicidal action in percent) (Setaria viridis [3]): 100%
- Post-emergence action against ECHCG (herbicidal action in percent) (Echinochloa crus-galli [4]): 100%
- Post-emergence action against LOLRI (herbicidal action in percent) (Lolium rigidum [5]): 100%
- Pre-emergence action ALOMY (herbicidal activity in percent) (Alopecurus myosuroides [6]): 90%
- Pre-emergence action DIGSA (herbicidal activity in percent) (Digitaria sanguinalis [7]): 100%
- Pre-emergence action SETVI (herbicidal activity in percent) (Setaria viridis [8]): 100%
- Pre-emergence action ECHCG (herbicidal activity in percent) (Echinochloa crus-galli [9]): 100%
- Pre-emergence action AVEFA (herbicidal activity in percent) (Avena fatua): 90%
- Pre-emergence action LOLRI (herbicidal activity in percent) (Lolium rigidum [10]): 100%

SMILES: CC#Cc1cc(Br)c(C2=C(O)C3(CCC(OCCOC)CC3)NC2=O)c(OC)c1 (centres unmarked) [Example 1.3.05]
- Pre-emergence action ALOMY (herbicidal activity in percent) (Alopecurus myosuroides [6]): 100%
- Pre-emergence action DIGSA (herbicidal activity in percent) (Digitaria sanguinalis [7]): 100%
- Pre-emergence action SETVI (herbicidal activity in percent) (Setaria viridis [8]): 100%
- Pre-emergence action ECHCG (herbicidal activity in percent) (Echinochloa crus-galli [9]): 100%
- Pre-emergence action AVEFA (herbicidal activity in percent) (Avena fatua): 90%
- Pre-emergence action LOLRI (herbicidal activity in percent) (Lolium rigidum [10]): 100%

SMILES: CC#Cc1cc(Br)c(C2=C(OC(C)=O)C3(CCC(OCCOC)CC3)NC2=O)c(OC)c1 (centres unmarked) [Example 1.3.08]
- Pre-emergence action ALOMY (herbicidal activity in percent) (Alopecurus myosuroides [6]): 100%
- Pre-emergence action DIGSA (herbicidal activity in percent) (Digitaria sanguinalis [7]): 100%
- Pre-emergence action SETVI (herbicidal activity in percent) (Setaria viridis [8]): 100%
- Pre-emergence action ECHCG (herbicidal activity in percent) (Echinochloa crus-galli [9]): 100%
- Pre-emergence action AVEFA (herbicidal activity in percent) (Avena fatua): 90%
- Pre-emergence action LOLRI (herbicidal activity in percent) (Lolium rigidum [10]): 100%

SMILES: CC#Cc1cc(Br)c(C2=C(OC(=O)OCC)C3(CCC(OC(C)C)CC3)NC2=O)c(OC)c1 (centres unmarked) [Example 1.3.12]
- Pre-emergence action ALOMY (herbicidal activity in percent) (Alopecurus myosuroides [6]): 100%
- Pre-emergence action DIGSA (herbicidal activity in percent) (Digitaria sanguinalis [7]): 100%
- Pre-emergence action SETVI (herbicidal activity in percent) (Setaria viridis [8]): 100%
- Pre-emergence action ECHCG (herbicidal activity in percent) (Echinochloa crus-galli [9]): 100%
- Pre-emergence action AVEFA (herbicidal activity in percent) (Avena fatua): 80%
- Pre-emergence action LOLRI (herbicidal activity in percent) (Lolium rigidum [10]): 100%

SMILES: CC#Cc1cc(Br)c(C2=C(OC(=O)OC)C3(CCC(OCCOC)CC3)NC2=O)c(OC)c1 (centres unmarked) [Example 1.3.06]
- Pre-emergence action ALOMY (herbicidal activity in percent) (Alopecurus myosuroides [6]): 100%
- Pre-emergence action DIGSA (herbicidal activity in percent) (Digitaria sanguinalis [7]): 100%
- Pre-emergence action SETVI (herbicidal activity in percent) (Setaria viridis [8]): 100%
- Pre-emergence action ECHCG (herbicidal activity in percent) (Echinochloa crus-galli [9]): 100%
- Pre-emergence action AVEFA (herbicidal activity in percent) (Avena fatua): 100%
- Pre-emergence action LOLRI (herbicidal activity in percent) (Lolium rigidum [10]): 100%

SMILES: C=CCOC1CCC2(CC1)NC(=O)C(c1c(Br)cc(C#CC)cc1OC)=C2OC(=O)OCC (centres unmarked) [Example 1.3.03]
- Post-emergence action against ALOMY (herbicidal action in percent) (Alopecurus myosuroides [1]): 100%
- Post-emergence action against DIGSA (herbicidal action in percent) (Digitaria sanguinalis [2]): 100%
- Post-emergence action against SETVI (herbicidal action in percent) (Setaria viridis [3]): 100%
- Post-emergence action against ECHCG (herbicidal action in percent) (Echinochloa crus-galli [4]): 100%
- Post-emergence action against LOLRI (herbicidal action in percent) (Lolium rigidum [5]): 100%
- Pre-emergence action ALOMY (herbicidal activity in percent) (Alopecurus myosuroides [6]): 100%
- Pre-emergence action DIGSA (herbicidal activity in percent) (Digitaria sanguinalis [7]): 100%
- Pre-emergence action SETVI (herbicidal activity in percent) (Setaria viridis [8]): 100%
- Pre-emergence action ECHCG (herbicidal activity in percent) (Echinochloa crus-galli [9]): 100%
- Pre-emergence action AVEFA (herbicidal activity in percent) (Avena fatua): 90%
- Pre-emergence action LOLRI (herbicidal activity in percent) (Lolium rigidum [10]): 100%

SMILES: CC#Cc1cc(Br)c(C2=C(O)C3(CCOCC3)NC2=O)c(OC)c1 [Example 1.1.01, 3-[2-Bromo-6-methoxy-4-(prop-1-yn-1-yl)phenyl]-4-hydroxy-8-oxa-1-azaspiro[4.5]dec-3-en-2-one]
- Post-emergence action against ALOMY (herbicidal action in percent) (Alopecurus myosuroides [1]): 100%
- Post-emergence action against HORMU (herbicidal action in percent) (Hordeum murinum): 100%
- Post-emergence action against DIGSA (herbicidal action in percent) (Digitaria sanguinalis [2]): 100%
- Post-emergence action against SETVI (herbicidal action in percent) (Setaria viridis [3]): 100%
- Post-emergence action against ECHCG (herbicidal action in percent) (Echinochloa crus-galli [4]): 100%
- Post-emergence action against LOLRI (herbicidal action in percent) (Lolium rigidum [5]): 100%
- Pre-emergence action ALOMY (herbicidal activity in percent) (Alopecurus myosuroides [6]): 90%
- Pre-emergence action DIGSA (herbicidal activity in percent) (Digitaria sanguinalis [7]): 100%
- Pre-emergence action SETVI (herbicidal activity in percent) (Setaria viridis [8]): 100%
- Pre-emergence action ECHCG (herbicidal activity in percent) (Echinochloa crus-galli [9]): 100%
- Pre-emergence action AVEFA (herbicidal activity in percent) (Avena fatua): 100%
- Pre-emergence action LOLRI (herbicidal activity in percent) (Lolium rigidum [10]): 100%
